# Experiments:
# HaCaT keratinocytes [1] = assay: IL-8 release after IL-1alpha stimulation of pre-treated keratinocytes (ELISA); format: cell-based, human; settings: 48 h pre-treatment, then 30 ng/mL IL-1alpha for 8 h
# Description: Anti-Inflammatory Effects of Lactobacillus plantarum HEAL 19 and HEAL 99 HaCaT keratinocytes were cultivated in 96-well plates using RPMI-A, medium sterile filtered with L-Glutamine, Capricorn, supplemented with 10% fetal calf serum (FCS), Capricorn. The plates were incubated at 37° C. and 5% CO2. After 24 hours starvation with cell culture medium (RPMI, 1% FCS) the cells were washed once. The anti-inflammatory substances/inactivated bacteria suspensions were suspended in starvation medium, applied and incubated for 24/48 h with parameters described above. […] To remove bacterial cells after pre-incubation all wells were washed with cell culture medium three times. IL-1alpha, Gibco, life technologies was dissolved in H2Odest, diluted in starvation medium and pipetted to wells, preferably at a concentration of 30 ng/mL. Alternatively, a heat inactivated Staphylococcus aureus (DSM799) suspension was used as pro-inflammatory agent in a concentration of 0.1 mg/mL-1 mg/mL dry mass. After 8 h incubation the supernatants were separated. All samples were stored at −80° C. until further analyses. IL-8 concentrations were measured with Human CXCL8/IL-8, DuoSet ELISA, Development Systems, R&D Systems. The experimental procedure was performed as described in the provided protocol. After calculating means of the duplicate/triplicate values and subtraction of the average zero standard optical density the calculation was done using four parameter logistic curve-fit for creating standard curves.
# HaCaT keratinocytes [2] = assay: AMP gene expression in keratinocytes grown as mono-layer (real time PCR, TaqMan array); format: cell-based, human; settings: for induction of β-Defensin 3, calculated RQ-value: RQ >2 = relevant induction
# Description: Effects of Lactobacillus Strains on AMP Gene Expression in Keratinocytes Grown as Mono-Layer
# AMP inductions were measured with real time PCR analysis using Taq-Man® Array fast 96-well plates.
# HaCaT keratinocytes were cultivated in EpiLife medium, cascade Biologics, Gibco, incl. HKGS, Gibco, life technologies. Test substances were diluted in equal medium and added in a volume of 2 mL per well on 6-well plates. All samples are tested on 100% confluent cells incubated at 37° C., 5% CO2. After 24 h incubation time all samples were removed and cells washed twice with Dulbecco's Phosphate Buffered Saline with Ca and Mg, Capricorn. RNA isolation was performed using RNeasy® Mini Kit, Qiagen. The procedure has been done as describes in the RNeasy Mini Handbook.
# Cells were lysed and precipitated with ethanol, the homogenate was washed three times using the spin column and the mRNA was eluated with purified water. Depending on the sample the procedure was slightly adjusted.
# RNA concentration was measured using μCuvetteG 1.0 and BioPhotometer, Eppendorf by measuring the absorption at 260 nm. Control values, like E260/280 or E260/230 were calculated simultaneously. Transcription was done with a minimum of 0.5-1 μg RNA per sample.
# Reverse transcription was done using high capacity RNA-to-cDNA Kit, Applied Biosystems. The procedure was based on the provided protocol. All samples were incubated in a PCR Thermocycler, Biometra running 60 min at 37° C. for reverse transcription, followed by 5 min at 95° C. (enzyme inactivation) and holding temperature at 4° C. in reaction room.
# Quantitative Real-Time PCR was done using StepOne Plus Fast Real Time PCR Instrument, Applied Biosystems. Initial steps of the RT-PCR included a first heating phase holding for 20 s at 95° C., followed by 40 cycles of cDNA denaturation for 3 s at 95° C. and annealing/elongation at 60° C. for 30 s.
# Analysis was done by 2-ACT Method—in detail: • 1. Standardization of Ct values with reference-gen (HPRT) ΔCTvaluegene=CTvaluegene−CTvalueReferencegene (HPRT) • 2. Subtraction of ACT-value of control sample (untreated) and ACT-value (treated) ΔΔCTvaluegene=ΔCTvaluetreated−ΔCTvaluecontrol • 3. Calculation of RQ-Ratio (relative quantification-value) RQ−value=2^−ΔΔCT
# A RQ-Value of >2 was defined as relevant induction of a gene.
# HaCaT keratinocytes [3] = assay: IL-8 release after S. aureus stimulation of pre-treated keratinocytes (ELISA); format: cell-based, human; settings: 0.25 mg/mL, 48 h pre-treatment
# Description: Anti-Inflammatory Effects of Lactobacillus plantarum HEAL 19 and HEAL 99 HaCaT keratinocytes were cultivated in 96-well plates using RPMI-A, medium sterile filtered with L-Glutamine, Capricorn, supplemented with 10% fetal calf serum (FCS), Capricorn. The plates were incubated at 37° C. and 5% CO2. After 24 hours starvation with cell culture medium (RPMI, 1% FCS) the cells were washed once. The anti-inflammatory substances/inactivated bacteria suspensions were suspended in starvation medium, applied and incubated for 24/48 h with parameters described above. Dexamethasone in a concentration of 10 μM was used as positive control. To remove bacterial cells after pre-incubation all wells were washed with cell culture medium three times. IL-1alpha, Gibco, life technologies was dissolved in H2Odest, diluted in starvation medium and pipetted to wells, preferably at a concentration of 30 ng/mL. Alternatively, a heat inactivated Staphylococcus aureus (DSM799) suspension was used as pro-inflammatory agent in a concentration of 0.1 mg/mL-1 mg/mL dry mass. After 8 h incubation the supernatants were separated. All samples were stored at −80° C. until further analyses. IL-8 concentrations were measured with Human CXCL8/IL-8, DuoSet ELISA, Development Systems, R&D Systems. The experimental procedure was performed as described in the provided protocol. […]
# [4] = system: ex vivo human skin models; assay: IL-8 release of ex vivo human skin models after diesel particulate 1650b; format: cell-based; settings: topical cosmetic formulation containing L. plantarum HEAL 19, stimulation with diesel particulate (1650b)
# Description: Ex Vivo Studies Ex vivo trials were done by Cutech Srl, Italy. Effects of described Lactobacillus strains on various parameters were analyzed in ex vivo skin models. Human skin from abdominal plastic surgery was used. Applications of heat inactivated bacteria suspensions were done systemically or topically, in formulation or solved in cell culture medium Tape stripping may be used. Concentrations and incubation times may vary. All data were processed in terms of mean, standard deviation and standard error of mean (SEM) for each treatment. Anti-Inflammatory Effects Above described ex vivo human skin models have been used to verify the anti-inflammatory potential of the L. plantarum strains. The models were treatment with a L. plantarum HEAL 19 cosmetic emulsion followed by the application of the external noxious agent and pollutant 1650b, simulating air pollution. At a selected endpoint, the organ cell culture medium has been withdrawn from wells and analyzed for IL-8 using Deluxe set Human IL-8 of Biolegend®, Inc.
# [5] = system: S. aureus (DSM799/ATCC6538); assay: Inhibition of Staphylococcus aureus growth (growth curves, OD 620 nm); format: cell-based; settings: 0.1 and/or 0.05%, 16 h incubation
# Description: Antimicrobial Effects of the Lactobacillus Strains Growth curves of various bacteria were measured photometrically at 620 nm. Inhibition of Staphylococcus aureus: 96-well MTP were prepared according to DIN58940-8 with autoclaved CASO medium (MERCK 1.05459) and test substances dissolved in DMSO or distilled water. The relevant wells were inoculated with S. aureus (DSM799/ATCC6538) using stock cultures maintained in 10% glycerin at −20° C. An inoculum of 1-6×10^6 cfu was added per well. Test substances were analyzed using three or four replicate wells during incubation at 37° C. for 16 hours. Growth curves were determined in each well via absorption at 620 nm using a Sunrise Photometer (Tecan, Austria) and Magellan Software. A concentration of 125 ppm farnesol and 4 ppm triclosan was used as positive control for growth inhibition, both pre-dissolved in DMSO (Merck 802912). For calculation, averages of detected absorptions were calculated and normalized with blank values. These OD values were plotted in function of time for graphical presentation.
# [6] = system: ex vivo human skin models; assay: Epidermal filaggrin, involucrin and cytokeratin 14 immunostaining ex vivo; format: cell-based; settings: various concentrations, vs vehicle (DMSO)
# Description: Ex Vivo Studies Ex vivo trials were done by Cutech Srl, Italy. Effects of described Lactobacillus strains on various parameters were analyzed in ex vivo skin models. Human skin from abdominal plastic surgery was used. Applications of heat inactivated bacteria suspensions were done systemically or topically, in formulation or solved in cell culture medium Tape stripping may be used. Concentrations and incubation times may vary. All data were processed in terms of mean, standard deviation and standard error of mean (SEM) for each treatment. Epidermal Filaggrin, Involucrin and Cytokeratin 14 For analyses, the models were immune-stained with the selected antibody filaggrin rabbit polyclonal [H-300], involucrin mouse monoclonal (SY5) and/or cytokeratin 14 (CK14) rabbit monoclonal (EPR17350). The amount of the antigen present in each slide was evaluated by estimating the intensity and the distribution of red dye within the epidermis. The obtained data were normalized for the length of the basal lamina.
# ex vivo skin models = assay: Skin barrier integrity (Rhodamine B) ex vivo after diesel particulate 1650b; format: cell-based, human; settings: L. plantarum HEAL 19 formulation vs placebo, stimulation with diesel particulate (1650b)
# Description: Ex vivo trials were done by Cutech Srl, Italy. Effects of described Lactobacillus strains on various parameters were analyzed in ex vivo skin models. Human skin from abdominal plastic surgery was used. Applications of heat inactivated bacteria suspensions were done systemically or topically, in formulation or solved in cell culture medium Tape stripping may be used. Concentrations and incubation times may vary. Skin Barrier Integrity (Rhodamine B) Ex vivo skin models have been treated topically with the L. plantarum strains before the application of the diesel particulate (i.e. 1650b). All skin samples have been incubated at 35° C., 5% CO2 and environmental humidity. At the end of the experimental phase the skin samples have been harvested stained with Rhodaminde B, cryo-fixed and cut at the cryostat for consequent image acquisition and analysis. The analysis of Rhodamine B fluorescence has been performed within two sections of the epidermis area for each skin model. Images have been analyzed by evaluating the fluorescence through Image-J application (NIH, USA).
# [7] = system: 3D epidermis model system for dry skin; assay: Barrier improving efficacy on SDS damaged 3D skin models for dry skin (TEM of intercellular lipid lamellae); format: cell-based; settings: 0.5% in a skin care formulation, topical, after SDS treatment
# Description: Barrier Improving Efficacy on SDS Damaged 3D Skin Models for Dry Skin
# For this purpose an in vitro study was performed on a 3D epidermis model system for dry skin. […] Disturbance of the epidermal barrier was measured as loss of intercellular lipid lamellae. The skin repair performance was determined by transmission electron microscopy (TEM) after treatment with L. plantarum HEAL 19 formulated in a cosmetic emulsion or placebo emulsion and then further cultivated to observe reformation of intercellular lipid lamellae.
# [8] = system: HEPKp 3 dimensional skin models; assay: Induction of hyaluronic acid in HEPKp 3D skin models (ELISA); format: cell-based, human; settings: 0.005% in cell culture medium, 8 days treatment
# Description: Induction of Hyaluronic Acid Human epidermal keratinocyte progenitors (HEPKp) generated 3d human skin models were cultivated and systemically treated with test substances. Briefly, defined concentrations of test substances were added to cell culture medium and each skin model was treated in cell culture dishes for up to 9 days at 37° C. and 5% CO2. After the treatment, collected supernatants were stored at −80° C. until further analyses. Viability of the cells was controlled by MTT standard method. Hyaluronic acid concentrations were measured by TECOmedical hyaluronic acid plus ELISA. The experimental procedure was performed as described in the provided protocol.
# [9] = system: HEPKp 3 dimensional skin models; assay: Filaggrin release from HEPKp 3D skin models (ELISA); format: cell-based, human; settings: 0.05%, after 8 days, vs medium control
# From the text: Induction of Moisturizing Factor Filaggrin in 3D Skin Models Three dimensional skin models derived from human epidermal keratinocyte progenitors (HEPKp) and were systemically treated with test substances in CnT-PR-3D medium for 4 to 9 days. The filaggrin release was detected in the media by ELISA, Enzyme-linked Immunosorbent Assay Kit for filaggrin, Cloud-Clone Corp.
# [10] = 0.05%, 24 h, gene arrays, induction defined as RQ-value >2
# [11] = 0.1 and 0.05% tested, 24 h treatment, HaCaT
compound,measurement,setting,value
"C[C@@H]1C[C@H]2[C@@H]3CCC4=CC(=O)C=C[C@]4(C)[C@@]3(F)[C@@H](O)C[C@]2(C)[C@@]1(O)C(=O)CO [dexamethasone, reference compound]","IL-8 release reduced to, compared to not pre-treated IL-1alpha control","HaCaT keratinocytes [1]; 30 μM, positive control",20.4%
Lactobacillus plantarum HEAL 19 (DSM 15313) [L. plantarum HEAL 19],"induction of β-Defensin 3, calculated RQ-value","HaCaT keratinocytes [2]; 0.0125% L. plantarum HEAL 19, 24 h, HaCaT",2.3
same,gene expression of Calprotectin,HaCaT keratinocytes [2]; [10],induced
same,gene expression of Lactotransferrin,HaCaT keratinocytes [2]; [10],Significantly induced
same,gene expression of Peptidase inhibitor 3,HaCaT keratinocytes [2]; [10],Significantly induced
same,gene expression of Psoriasin,HaCaT keratinocytes [2]; [10],Significantly induced
same,gene expression of RNase 7,HaCaT keratinocytes [2]; [10],Significantly induced
same,gene expression of Secretory leukocyte peptidase inhibitor,HaCaT keratinocytes [2]; [10],Significantly induced
same,gene expression of β-Defensin 1,HaCaT keratinocytes [2]; [10],induced
same,gene expression of β-Defensin 3,HaCaT keratinocytes [2]; [10],Significantly induced
same,gene expression of β-Defensin 4,HaCaT keratinocytes [2]; [10],Significantly induced
same,"induction of β-Defensin 3, calculated RQ-value","HaCaT keratinocytes [2]; 0.1% L. plantarum HEAL 19, 24 h, HaCaT",243.6
same,"IL-8 release reduced to, compared to not pre-treated IL-1alpha control",HaCaT keratinocytes [1]; 0.25 mg/mL,5.1%
same,"IL-8 concentration in the medium reduced to, compared to only S. aureus stimulated control",HaCaT keratinocytes [3],31%
same,"IL-8 detection in cell culture medium reduced to, compared to placebo control",[4],75%
same,growth of S. aureus (optical density),[5],growth inhibition effects
same,cytokeratin 14 (CK14) production,[6]; topical treatment,increased
same,involucrin production,[6]; topical treatment,increased
same,filaggrin release/contents ex vivo,[6],concentration dependent induction
same,rhodamine B penetration (skin barrier integrity),ex vivo skin models,reduction of rhodamine B penetration
same,repair performance (length of intercellular lipid lamellae),[7],increased repair performance
same,hyaluronic acid release compared to the medium control,[8],145%
same,filaggrin (FLG) release in medium,[9],215%
Lactobacillus plantarum HEAL 99 (DSM 15316) [L. plantarum HEAL 99],induction of AMP coding gene Peptidase inhibitor 3,HaCaT keratinocytes [2]; [11],induced concentration dependently
same,induction of AMP coding gene Phospholipase A2,HaCaT keratinocytes [2]; [11],induced concentration dependently
same,induction of AMP coding gene RNase 7,HaCaT keratinocytes [2]; [11],induced concentration dependently
same,induction of AMP coding gene Secretory leukocyte peptidase inhibitor,HaCaT keratinocytes [2]; [11],induced concentration dependently
same,induction of AMP coding gene β-Defensin 3,HaCaT keratinocytes [2]; [11],induced concentration dependently
same,"IL-8 release reduced to, compared to not pre-treated IL-1alpha control",HaCaT keratinocytes [1]; 0.1 mg/mL,12.6%
same,hyaluronic acid release compared to the medium control,[8],115%
same,filaggrin (FLG) release in medium,[9],150%

# — patent US12128129B2, “Lactobacillus plantarum for skin care” (SYMRISE AG, priority 2019, dated 2024)
